US20250304600A1, “PHARMACEUTICAL COMPOUNDS AND COMPOSITIONS AS c-KIT KINASE INHIBITORS” (Enanta Pharmaceuticals, Inc., priority 2023, published 2025)
pEC50, pIC50: −log10 of the molar value.

Assays:
[1] = target: T1, Recombinant human c-KIT kinase (Homo sapiens, UniProt P10721); experiment: c-KIT kinase chemiluminescence assay (ADP-Glo); type: biochemical; conditions: ATP 50 μM
T1 construct: purchased Promega V4498
Experimental: The c-KIT Kinase Enzyme System (V4498) and ADP-Glo™ Kinase Assay kit (V6930) were purchased from Promega (Madison, WI). DMSO (D2650) was purchased from Sigma-Aldrich (Burlington, MA).
c-KIT Kinase Chemiluminescence Assay:
Kinase Reaction: The kinase assay was based on the recommended protocol by c-KIT Kinase Enzyme System from Promega. Recombinant human c-KIT kinase in 3 μL of assay buffer (40 mM Tris pH 7.5, 20 mM MgCl2, 0.1 mg/mL BSA and 50 μM DTT) was added to the test or high control wells and 3 μL of assay buffer was added to the low control wells. The microplate was centrifuged at 800 rotations per minute (rpm) for 60 s and incubated at room temperature (RT) for 30 min. Next, 2 μL of buffered ATP and polyEY substrate solution was added to all wells. The microplate was centrifuged at 800 rpm for 60 s and incubated at RT for 2 h.
ADP detection with ADP-Glo™ Kinase Assay: After the kinase reaction incubation, 5 μL of ADP-Glo™ reagent was added to all wells. The microplate was centrifuged at 800 rpm for 60 s and incubated at RT for 40 min. Ten microliter (10 μL) of Kinase Detection Reagent (Luciferin-Luciferase system) was then added to all wells. The microplate was centrifuged at 800 rpm for 60 s and incubated at RT for 60 min. Kinase activity was measured as an increase in luminescence at RT in an Envision plate reader equipped with 560 nm filters and operating in endpoint mode.
Data Analysis: Endpoint chemiluminescence from high and low control wells were used to calculate normalized c-KIT activity at various concentrations of test compounds. The normalized activities were fitted to inhibitor-versus-normalized response fit in GraphPad Prism 7 to determine half-maximal inhibitory concentration (IC50) and hill coefficient values (H).
Where I is the inhibitor concentration and H is the Hill coefficient.

[2] = system: M-07e cells which endogenously express human c-KIT; experiment: M-07e cellular assay: SCF-mediated cell proliferation (CellTiter Glo); type: cell-based; conditions: 72 h, SCF-mediated proliferation of M-07e cells
Experimental: M-07e cells (Creative Bioarray, CSC-C0249) which endogenously express human c-KIT were used to evaluate the effect of compounds on stem cell factor (SCF)-mediated cell proliferation. M-07e cells were cultured in growth media (RPMI+10% FBS+1% penicillin/streptomycin+10 ng/mL GM-CSF) at 5E5-1.5E6 cells/mL, replenishing media every 3-4 days. 1.5E4 cells were seeded per well in 384 well tissue culture treated plates in […] assay media (RPMI+10% FBS+1% penicillin/streptomycin) without growth factor stimulation and incubated at 37° C. in a CO2 humidity-controlled incubator. Twenty-four hours later, three-fold serially diluted test compounds in media containing SCF (at the previously determined EC90) were added to the plated M-07e cells and incubated for an additional 72 hours. Cell viability was determined by adding 25 μL CellTiter Glo (Promega) to the cells and the luminescence was measured using a Perkin Elmer Envision plate reader. The EC50 was determined using GraphPad Prism. Percent cell growth was determined after normalizing the curve to the mean RLU high control (no compound control wells) at 100% and the mean RLU low control (no SCF control wells) at 0%.

T1 sequence (P10721 544-976 limits assumed): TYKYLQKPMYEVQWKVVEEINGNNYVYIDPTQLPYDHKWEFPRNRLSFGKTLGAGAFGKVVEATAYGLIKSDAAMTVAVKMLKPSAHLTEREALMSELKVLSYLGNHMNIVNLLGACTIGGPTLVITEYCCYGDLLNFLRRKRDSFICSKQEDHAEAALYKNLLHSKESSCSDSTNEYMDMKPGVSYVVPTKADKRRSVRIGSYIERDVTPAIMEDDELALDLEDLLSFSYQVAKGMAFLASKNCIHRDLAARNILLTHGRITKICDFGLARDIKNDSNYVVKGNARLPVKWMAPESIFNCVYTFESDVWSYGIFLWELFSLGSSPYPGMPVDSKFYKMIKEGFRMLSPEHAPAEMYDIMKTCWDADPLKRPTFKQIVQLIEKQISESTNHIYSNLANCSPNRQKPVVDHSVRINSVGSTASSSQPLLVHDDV

pIC50 [1] | Compound | pEC50 [2]
< 6.00 | Cc1ccc(-c2noc(C3C[C@@H]3F)n2)cc1NC(=O)c1cnc(-c2cnc(N3CC(O)(C(F)(F)F)C3)nc2)o1 (stereo partly drawn) [Example 402] | 6.00 to 7.00
6.00 to 7.00 | Cc1ncc(-c2nnn(C3CC3)n2)cc1NC(=O)c1cnn2ccc(N3CC4(C3)CC(O)(C(F)F)C4)cc12 [Example 403] | > 7.00
6.00 to 7.00 | Cc1ncc(-c2nnc(C3C[C@@H]3F)o2)cc1NC(=O)c1cnn2ccc(N3CC4(C3)CC(O)(C(F)F)C4)cc12 (stereo partly drawn) [Example 404] | 6.00 to 7.00
6.00 to 7.00 | Cc1ncc(-c2nc([C@H]3C[C@@H]3F)cs2)cc1NC(=O)c1cnn2ccc(N3CC4(C3)CC(O)(C(F)F)C4)cc12 [Example 405] | > 7.00
> 7.00 | Cc1ncc(-c2noc(C3C[C@@H]3F)n2)cc1NC(=O)c1cnn2ccc(-c3cn(C[C@H](O)C(C)(C)O)nc3C3CC3)cc12 (stereo partly drawn) [Example 406] | > 7.00
6.00 to 7.00 | Cc1ncc(-c2nnc(C3C[C@@H]3F)s2)cc1NC(=O)c1cnn2ccc(N3CC4(C3)CC(O)(C(F)F)C4)cc12 (stereo partly drawn) [Example 407] | > 7.00
